From patent US9855257B2, “4-alkynyl imidazole derivative and medicine comprising same as active ingredient” (KAKEN PHARMACEUTICAL CO., LTD., priority 2013, dated 2018)

Tests used:
[1] = tested on: Carrageenin Induced Paw Edema in Rats; assay: Anti-inflammatory effect on carrageenin induced paw edema in rats; assay type: in vivo, rat; settings: positive control, maximum efficacy at doses of 10˜30 mg/kg
Description: Test for Evaluating the Anti-Inflammatory Effect on Carrageenin Induced Paw Edema in Rats
The animals were Wistar male rats (7-week old). The paw volume of the right hind leg was measured with a paw volume meter (PLETHYSMOMETER, Ugo Basile Model 7141 or 7150). One hour after orally administering a test compound at a dose of 10 mg/5 mL/kg, a carrageenin treatment group was given a 1 w/v % carrageenin solution and a non-treatment group given distilled water, each administered subcutaneously to the footpad of the right hind leg at a dose of 0.1 mL. Four hours after the treatment with carrageenin (or distilled water), the paw volume was measured and the change in paw volume from the pre-treatment value was calculated. The anti-inflammatory effect of the test compound was confirmed using the percent paw edema suppression (see below) as an indicator. In the present experimental models, Cerecoxib (COX inhibitor already available on the market as an anti-inflammatory/analgesic agent) was used as a positive control.

rat EP4 receptor = target: T1, rat EP4 receptor (Rattus norvegicus, UniProt P43114); assay: Rat EP4 receptor antagonistic action by the reporter assay method; assay type: cell-based; settings: COS-7 cells expressing rat EP4 receptor, CRE-LUC reporter, PGE2 1×10^−8 mol/L; geometric mean of three cases; read-out: Intensity of EP4 Receptor Antagonistic Activity IC50
T1 construct: its translated region was integrated into the expression vector pShooter (Invitrogen); expressed in transfected cells; host or cells: COS-7 cells (Cercopithecus aethiops kidney), transiently co-transfected with ratEP4-pShooter and a CRE-LUC reporter vector
Description: Test for Evaluating the Rat EP4 Receptor Antagonistic Action by the Reporter Assay Method
The first step was the cloning of the rat EP4 receptor. Total RNA was prepared from the kidney extracted from rats. With the total RNA used as a template, the rat EP4 receptor gene was cloned by RT-PCR and its translated region was integrated into the expression vector pShooter (Invitrogen) to prepare a rat EP4 receptor expressing vector (ratEP4-pShooter).
In the next step, rat EP4 receptor expressing cells for use in the reporter assay were prepared. COS-7 cells (derived from the kidney of Cercopithecus aethiops) were cultured in Dulbecco's Modified Eagle Medium (DMEM) (supplemented with 10% fetal bovine serum) in a 75-cm^2 cell culture flask. After the cells proliferated to a subconfluent state, the medium was removed and rinsed with phosphate buffered physiological saline (PBS). Trypsin-EDTA and a growth medium were used to recover the cells, which were then centrifuged. The supernatant was removed and the cells were suspended in DMEM. The cell suspension was seeded on a 96-well plate at a density of 2×10^4 cells/100 μL/well and cultured. The DMEM was mixed with Plus reagent, Lipofectamine 2000, the rat EP4 receptor expressing vector (ratEP4-pShooter) and a CRE-LUC reporter vector (CLONTECH) to prepare a transfection solution. Three hours after the seeding of the cells, 50 μL of the medium was removed and 50 μL/well of the transfection solution was added, followed by culture overnight. Negative control cells were prepared using pShooter in place of the receptor expressing vector. The cells were seeded on a 96-well plate for reporter assay and cultured.
The medium on the 96-well plate was removed and a test compound was added in an amount of 50 μL/well. After ca. 30-min culture, a PGE2 solution (2×10^−8 mol/L) was added in an amount of 50 μL/well (final concentration of PGE2: 1×10^−8 mol/L). As a PGE2-free control, there were provided wells to which a test medium had been added in an amount of 50 μL/well. About three hours later, the medium was removed and reporter assay was performed in accordance with the protocol accompanying the Steady-Glo Luciferase Assay System kit. Luminous intensity was measured with a microplate reader (Fusion-FPα, PerkinElmer) and EP4 receptor antagonistic activity (%) was determined by the following calculation formula: EP4 receptor antagonistic activity (%)=[1−(RLU(A,X)−RLU(0))/(RLU(PGE2)−RLU(0))]×100 RLU(A,X): Luminous intensity expressed in relative luminescence units (RLU) for the case where the test compound (A) X (mol/L) and PGE2 10^−8 mol/L were both added; RLU(PGE2): Luminous intensity for the case where only PGE2 10^−8 mol/L was added; RLU(0): Luminous intensity for the case where neither test compound nor PGE2 was added.
In addition, a dose-response curve was plotted from the EP4 receptor antagonistic activities at varying concentrations of each test compound and using the following approximation formula, the IC50 (the concentration of the test compound required to inhibit the PGE2 inducing activity by 50%) was calculated to determine the intensity of the compound's EP4 receptor antagonistic activity. The results are shown in Table 2: Y=Bottom+(Top−Bottom)/{1+10^(Log IC50−Log X)} Bottom: 0 Top: 100 X: Concentration of the test compound (mol/L) Y: EP4 receptor antagonistic activity (%)

[2] = tested on: Carrageenin Induced Hyperalgesia in Rats; assay: Analgesic effect on carrageenin induced hyperalgesia in rats; assay type: in vivo; settings: Rattus norvegicus, 2 h; SD male rats, oral 10 mg/5 mL/kg six hours after carrageenin, nociceptive threshold (Randall-Selitto) two hours after administration; 5˜7 cases; read-out: Percent Effectiveness
Description: Test for Evaluating Analgesic Effect on Carrageenin Induced Hyperalgesia in Rats
The animals were SD male rats (5-week old). Before treatment with carrageenin (or distilled water), the rats were measured for nociceptive thresholds in their right hind leg by the Randall-Selitto method and divided into a carrageenin treatment group and a non-treatment group to provide uniformity in nociceptive threshold. The carrageenin treatment group was given a 1 w/v % carrageenin solution and the non-treatment group given distilled water, each administered subcutaneously to the footpad of the right hind leg at a dose of 0.1 mL. Five hours after the treatment, the nociceptive thresholds were measured and the individuals with decreased thresholds were selected and grouped such that there was no inter-group difference in threshold. Six hours after the treatment, each test compound was orally administered at a dose of 10 mg/5 mL/kg. The control group was administered 0.5% methylcellulose. Two hours after the administration of the test compound (8 hours after the treatment), the nociceptive threshold was measured. The animals in the test compound group that had nociceptive thresholds greater than [(the mean nociceptive threshold of the control group)+2×standard deviation] were found “effective animals” and the percent effectiveness of each compound was calculated.

[3] = tested on: Adjuvant Induced Arthritis in Rats; assay: Anti-inflammatory and analgesic effects on adjuvant induced arthritis in rats; assay type: in vivo, rat; set-up: Percent Effectiveness: scale not given: direction of the effect not stated beside the values; settings: Lewis male rats, oral 0.3 mg/kg once a day, day 9 to day 17 after adjuvant; for Percent paw edema suppression: measured at day 18, means of 8˜10 cases; for Percent Effectiveness: pain threshold at day 18, 8˜10 cases
Description: Test for Evaluating Anti-Inflammatory and Analgesic Effects on Adjuvant Induced Arthritis in Rats
The animals were Lewis male rats (6-week old). An adjuvant solution (2 mg/mL) was administered intradermally to the footpad of the left hind leg of each animal at a dose of 0.1 mL to create an arthritis model. Paw volume was measured with a paw volume meter (PLETHYSMOMETER, Ugo Basile Model 7141). For evaluation of pain thresholds, a probe fitted to the sensor site of Pressure Application Measurement (PAM, Ugo Basile Model 38500) was used to turn the foot sole of a rat upward (dorsiflexion) until it gave an indication of pain or discomfort (vocalization) and the load being applied was measured. Eight days after the treatment with the adjuvant, the paw volume and pain threshold of each treated foot were measured and the animals were grouped for oral administration of each test compound (0.3 mg/kg) which was performed for nine days on a once-a-day schedule starting at day 9 and ending at day 17 after the treatment. At day 18 after the treatment, the paw volume and pain threshold of each […] foot were measured.
The anti-inflammatory effect of the test compound was confirmed using the percent paw edema suppression as an indicator. Percent paw edema suppression (%)=[(paw volume change in the control group−paw volume in each treatment group)/(paw volume change in the control group−paw volume change in the non-treatment group)]×100
As for the analgesic effect, the animals in the test compound group that had nociceptive thresholds greater than [(the mean nociceptive threshold of the control group)+2×standard deviation] were found “effective animals” and the percent effectiveness of each compound was calculated.

T1 sequence (P43114 whole entry): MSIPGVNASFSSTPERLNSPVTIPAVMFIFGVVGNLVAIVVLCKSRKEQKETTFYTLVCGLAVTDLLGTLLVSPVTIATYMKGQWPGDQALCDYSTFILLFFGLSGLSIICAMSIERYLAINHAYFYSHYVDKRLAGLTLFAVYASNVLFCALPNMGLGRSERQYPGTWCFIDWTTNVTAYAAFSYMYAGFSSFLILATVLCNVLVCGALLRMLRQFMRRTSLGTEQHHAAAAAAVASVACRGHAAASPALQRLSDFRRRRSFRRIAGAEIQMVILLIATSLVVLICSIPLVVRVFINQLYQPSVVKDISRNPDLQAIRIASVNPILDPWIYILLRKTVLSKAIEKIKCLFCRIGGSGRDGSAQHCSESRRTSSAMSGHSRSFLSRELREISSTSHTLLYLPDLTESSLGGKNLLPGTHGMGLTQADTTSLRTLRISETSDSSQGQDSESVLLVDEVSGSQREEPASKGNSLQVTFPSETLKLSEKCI

Row | SMILES | IC50 (rat EP4 receptor) [nM] | further results
1 | Cc1ccc(-c2cc(C(F)(F)F)nn2-c2ccc(S(N)(=O)=O)cc2)cc1 [Cerecoxib, reference compound] |  | Percent paw edema suppression at the maximum efficacy [1]: 32˜37%
2 | COC(C)(C)C#Cc1nc(Cl)n(Cc2ccc(C)cc2)c1C(=O)NC1(c2ccc(C(=O)O)cc2)CC1 [Compound 67, 4-(1-{2-Chloro-4-(3-methoxy-3-methyl-1-butyn-1-yl)-1-(4-methylbenzyl)-1H-imidazole-5-carboxamido}cyclopropyl)benzoic acid] | 2.1 | responders at 10 mg/kg [2]: 100%
3 | CC(C)(O)C#Cc1nc(Cl)n(Cc2ccc(C(F)(F)F)cc2)c1C(=O)NCc1ccc(C(=O)O)cc1 [Compound 2, 4-({2-Chloro-4-(3-hydroxy-3-methyl-1-butyn-1-yl)-1-[4-(trifluoromethyl)benzyl]-1H-imidazole-5-carboxamido}methyl)benzoic acid] | 14.1 | Percent paw edema suppression [3]: 21%; Percent Effectiveness [3]: 38%
4 | CC(C)(O)C#Cc1nc(Cl)n(Cc2ccc(C(F)(F)F)cc2)c1C(=O)NC1(c2ccc(C(=O)O)cc2)CC1 [Compound 4] | 3 | 
5 | Cc1ccc(Cn2c(Cl)nc(C#CC(C)(C)O)c2C(=O)NC[C@H]2CC[C@H](C(=O)O)CC2)cc1 [Compound 21, trans-4-{[2-Chloro-4-(3-hydroxy-3-methyl-1-butyn-1-yl)-1-(4-methylbenzyl)-1H-imidazole-5-carboxamido]methyl}cyclohexanecarboxylic acid] | 26.4 | Percent paw edema suppression [3]: 53%; Percent Effectiveness [3]: 20%
6 | O=C(NCC1CCC(C(=O)O)CC1)c1c(C#CC2(O)CCCC2)nc(Cl)n1Cc1ccc(C(F)(F)F)cc1 (centres unmarked) [Compound 16] | 7.3 | 
7 | Cc1ccc(Cn2c(Cl)nc(C#CC(C)(C)O)c2C(=O)NC2(c3ccc(C(=O)O)cc3)CC2)cc1 [Compound 68] | 6.1 | 
8 | CC(C)(O)C#Cc1nc(C2CC2)n(Cc2ccc(C(F)(F)F)cc2)c1C(=O)NCc1ccc(C(=O)O)cc1 [Compound 20, 4-({2-cyclopropyl-4-(3-hydroxy-3-methyl-1-butyn-1-yl)-1-[4-(trifluoromethyl)benzyl]-1H-imidazole-5-carboxamido}methyl)benzoic acid] | 64.6 | 
9 | CC(C)(O)C#Cc1nc(Cl)n(Cc2ccc(C(F)(F)F)cc2)c1C(=O)NC[C@H]1CC[C@H](C(=O)O)CC1 [Compound 1, trans-4-({2-Chloro-4-(3-hydroxy-3-methyl-1-butyn-1-yl)-1-[4-(trifluoromethyl)benzyl]-1H-imidazole-5-carboxamido}methyl)cyclohexanecarboxylic acid] | 23.8 | Percent paw edema suppression [3]: 54%; Percent Effectiveness [3]: 30%
10 | COC(C)(C)C#Cc1nc(Cl)n(Cc2ccc(OC(F)(F)F)cc2)c1C(=O)N[C@@H](C)c1ccc(C(=O)O)cc1 [Compound 50] | 1.1 | 

Continued by falling IC50 (rat EP4 receptor), values first:

Row | IC50 (rat EP4 receptor) [nM] | SMILES | further results
11 | 49.9 | COC(C)(C)C#Cc1nc(Cl)n(Cc2ccc(F)cc2)c1C(=O)NCc1ccc(C(=O)O)cc1 [Compound 56, 4-{[2-Chloro-1-(4-fluorobenzyl)-4-(3-methoxy-3-methyl-1-butyn-1-yl)-1H-imidazole-5-carboxamido]methyl}benzoic acid] | 
12 | 26.6 | CC(C)(C#Cc1nc(Cl)n(CCOc2ccc(Cl)cc2)c1C(=O)NC[C@H]1CC[C@H](C(=O)O)CC1)CO [Compound 61, Trans-4-({2-chloro-1-[2-(4-chlorophenoxy)ethyl]-4-(4-hydroxy-3,3-dimethyl-1-butyn-1-yl)-1H-imidazole-5-carboxamido}methyl)cyclohexanecarboxylic acid] | 
13 | 26.1 | COC(C)(C)C#Cc1nc(C(F)F)n(CCOc2ccc(Cl)cc2)c1C(=O)NCc1ccc(C(=O)O)cc1 [Compound 64] | 
14 | 17.5 | CC(C)(O)C#Cc1nc(Cl)n(CCOc2ccc(Cl)cc2)c1C(=O)NCc1ccc(C(=O)O)cc1 [Compound 44] | responders at 10 mg/kg [2]: 50%
15 | 16.1 | COC(C)(C)C#Cc1nc(Cl)n(Cc2cccc(OC(F)F)c2)c1C(=O)NCc1ccc(C(=O)O)cc1 [Compound 54] | 
16 | 10.2 | COC(C)(C)C#Cc1nc(Cl)n(Cc2ccc(C(F)F)cc2)c1C(=O)NC[C@H]1CC[C@H](C(=O)O)CC1 [Compound 60, trans-4-({2-Chloro-1-[4-(difluoromethyl)benzyl]-4-(3-methoxy-3-methyl-1-butyn-1-yl)-1H-imidazole-5-carboxamido}methyl)cyclohexanecarboxylic acid] | 
17 | 8.4 | COC(C)(C)C#Cc1nc(Cl)n(Cc2ccc(C(F)(F)F)cc2)c1C(=O)NCc1ccc(C(=O)O)cc1 [Compound 41] | 
18 | 7.9 | COC(C)(C)C#Cc1nc(Cl)n(Cc2ccc(OC(F)F)cc2)c1C(=O)NCc1ccc(C(=O)O)cc1 [Compound 52] | 
19 | 7.9 | COC(C)(C)C#Cc1nc(Cl)n(Cc2ccc(OC(F)F)cc2)c1C(=O)NCC1CCC(C(=O)O)CC1 (centres unmarked) [Compound 51] | 
20 | 5.1 | COC(C)(C)C#Cc1nc(Cl)n(CCOc2ccc(Cl)cc2)c1C(=O)NCc1ccc(C(=O)O)cc1 [Compound 45] | responders at 10 mg/kg [2]: 50%
